Values after ≈ are worked out from the molar mass of the structure shown.
Experiment: Solubility of Compound IX in solvents (Table 1)
Type: physicochemical
Conditions: for solubility: organic solvent or mixture

solubility (1,4-dioxane, solvent 1,4-dioxane (entry 8)): 2900 µg/mL (≈ 10.7 mM)
solubility (ACN, solvent ACN (entry 6)): 1500 µg/mL (≈ 5.51 mM)
solubility (DCE, solvent DCE (entry 1)): 150 µg/mL (≈ 0.551 mM)
solubility (DCM, solvent DCM (entry 17)): 300 µg/mL (≈ 1.1 mM)
solubility (DMA, solvent DMA (entry 19)): 13000 µg/mL (≈ 47.8 mM)
solubility (DME, solvent DME (entry 4)): 3260 µg/mL (≈ 12 mM)
solubility (DME, solvent DME (entry 21)): 10000 µg/mL (≈ 36.7 mM)
solubility (DMF, solvent DMF (entry 18)): 21000 µg/mL (≈ 77.2 mM)
solubility (DMSO, solvent DMSO (entry 10)): 45000 µg/mL (≈ 165 mM)
solubility (EA, solvent EA (entry 16)): 700 µg/mL (≈ 2.57 mM)
solubility (EtOH, solvent EtOH (entry 12)): 1000 µg/mL (≈ 3.67 mM)
solubility (MTBE, solvent MTBE (entry 15)): 100 µg/mL (≈ 0.367 mM)
solubility (MeOH, solvent MeOH (entry 11)): 2500 µg/mL (≈ 9.18 mM)
solubility (NMP, solvent NMP (entry 20)): 44000 µg/mL (≈ 162 mM)
solubility (THF, solvent THF (entry 5)): 2730 µg/mL (≈ 10 mM)
solubility (acetone, solvent Acetone (entry 2)): 1590 µg/mL (≈ 5.84 mM)
solubility (i-PrOH, solvent i-PrOH (entry 13)): 500 µg/mL (≈ 1.84 mM)
solubility (in words) (overall statement on Table 1): limited solubility
solubility (t-BuOH, solvent t-BuOH (entry 14)): 100 µg/mL (≈ 0.367 mM)
solubility (thietane 1,1-dioxide, solvent thietane 1,1-dioxide (entry 3)): 6350 µg/mL (≈ 23.3 mM)
Compound: O=c1ccc(-c2cnc(OCC(F)(F)F)nc2)n[nH]1 [Compound IX, 6-[2-(2,2,2-trifluoroethoxy)pyrimidin-5-yl]-2,3-dihydropyridazin-3-one]

Source: US20250388564A1, “METHODS OF MANUFACTURING PYRIDAZINONE COMPOUNDS” (Edgewise Therapeutics, Inc., priority 2022, published 2025)
